Measured values: US8822414B2, “Heterocyclic compounds suitable for the treatment of dyslipidemia” (Cadila Healthcare Limited, priority 2010, dated 2014)

Experiments:
[1] = molecular target: pro-protein convertase of the subtype nine binding to recombinant LDLR-AB domain (Homo sapiens, UniProt Q8NBP7); assay: in vitro quantitative solid phase binding assay (ELISA) of the subtype nine pro-protein convertase to immobilized LDLR; conditions: for inhibition at 1 µM: Concentration 1 μM; for inhibition at 10 µM: Concentration 10 μM; for inhibition at 100 µM: Concentration 100 μM
Protocol: The in vitro binding assay described hereinafter is a quantitative solid phase binding assay for determining the efficacy of the compounds. Plates were pre-coated with a recombinant LDLR-AB domain, which binds to the gene pro-protein convertase of the subtype nine. Test compound at different concentrations was added to the subtype gene and added to LDLR immobilized on the wells. The amount of bound gene is measured by binding it with biotinylated anti-His-tag monoclonal antibody, followed by binding with horseradish peroxidase conjugated streptavidin substrate. The color was quantified by ELISA reader at […] which reflects the relative amount of “the gene” that binds to LDLR in presence and absence of the inhibitor. EC50 values were calculated by nonlinear regression analysis using graph pad prism software. Each concentration point represents values in duplicates.

High Fat Diet C57 Mice = assay: LDL-C lowering activity in high fat diet C57 mice; type: in vivo; conditions: C57 mice on high fat diet, dose 30 mg, orally once a day, day 28 of treatment
Protocol: The in-vivo LDL-c lowering for test compound was tested in C57 mice which were kept on high fat diet for 4 weeks and the blood was collected by retro-orbital sinus puncture method under light ether anesthesia on day 0 (pretreatment). Animal are grouped based on LDL-C levels, after that 4-6 week treatment with vehicle or test compound orally at a dose of 30 mpk dose once a day was given. On completion of treatment on day 28 of the treatment the blood was collected for LDL-C levels measurement. The percent change in LDL-C in test compound group Vs Vehicle group was calculated.

Chain of pro-protein convertase of the subtype nine binding to recombinant LDLR-AB domain (Q8NBP7 153-692): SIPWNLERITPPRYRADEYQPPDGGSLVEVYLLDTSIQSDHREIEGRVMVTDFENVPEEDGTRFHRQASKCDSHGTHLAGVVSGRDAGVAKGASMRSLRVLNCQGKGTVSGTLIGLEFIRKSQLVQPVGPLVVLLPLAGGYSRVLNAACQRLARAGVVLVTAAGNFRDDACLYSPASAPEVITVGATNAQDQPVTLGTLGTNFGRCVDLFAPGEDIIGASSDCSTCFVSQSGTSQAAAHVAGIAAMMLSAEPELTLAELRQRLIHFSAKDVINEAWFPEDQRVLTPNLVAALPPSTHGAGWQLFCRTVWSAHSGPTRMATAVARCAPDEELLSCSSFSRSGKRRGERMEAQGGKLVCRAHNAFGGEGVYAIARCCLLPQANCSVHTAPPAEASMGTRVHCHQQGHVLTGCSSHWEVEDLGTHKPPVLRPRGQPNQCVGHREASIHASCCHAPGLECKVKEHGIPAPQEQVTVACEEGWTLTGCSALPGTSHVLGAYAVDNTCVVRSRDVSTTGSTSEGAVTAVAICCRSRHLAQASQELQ
Chain of pro-protein convertase of the subtype nine binding to recombinant LDLR-AB domain (Q8NBP7 31-152 partner limits assumed): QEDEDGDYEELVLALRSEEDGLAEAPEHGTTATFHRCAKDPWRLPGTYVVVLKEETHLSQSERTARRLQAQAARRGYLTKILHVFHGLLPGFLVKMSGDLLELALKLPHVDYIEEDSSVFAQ

inhibition at 1 µM [1] [%]	inhibition at 10 µM [1] [%]	inhibition at 100 µM [1] [%]	SMILES	% Change Vs Vehicle Control LDL-C (High Fat Diet C57 Mice) [%]	% Change Vs Vehicle Control TC (High Fat Diet C57 Mice) [%]
16	38	63	CC(=NOCc1ccc(C(F)(F)F)cc1)c1ccc(OCC(=O)NCC2CCOCC2)cc1 [Example 18, N-((tetrahydro-2H-pyran-4-yl)methyl)-2-(4-(1-(((4-(trifluoromethyl)benzyl)oxy)imino)ethyl)phenoxy)acetamide]	−75.2 ± 3.5	−41.6 ± 1.9
29	46	46	CCC(=NOCc1ccc(C(F)(F)F)cc1)c1ccc(OCC(=O)NCC2CCOCC2)nc1 [Example 22, N-((tetrahydro-2H-pyran-4-yl)methyl)-2-((5-(1-(((4-(trifluoromethyl)benzyl)oxy)imino)propyl)pyridin-2-yl)oxy)acetamide]	−64.6 ± 4.1	−21.5 ± 2.8
15	20	29	O=C(COc1ccc(C(CO)=NOCc2ccc(C(F)(F)F)cc2)cc1)NCC1CCOCC1 [Example 31, 2-(4-(2-hydroxy-1-(((4-(trifluoromethyl)benzyl)oxy)imino)ethyl)phenoxy)-N-((tetrahydro-2H-pyran-4-yl)methyl)acetamide]	−30.6 ± 3.6	−3.5 ± 3.4
